pIC50: −log10 of the molar value. Like-named read-outs stand apart in the source and are kept apart here.

Assay [1] has as its target T1, HCV RdRp (NS5B RNA-dependent RNA polymerase) (Hepatitis C virus genotype 1b, UniProt P26663).
T1 construct: The HCV NS5B protein is the viral RdRp; made in house; host or cells: insect cells infected with recombinant baculovirus
As to the kind of experiment: Inhibition of hepatitis C virus RdRp (poly(A)/oligo(U), [3H]UTP incorporation). In kind it is biochemical. The note with it: for IC50: Tables I-VIII, 20 nM NS5B, 1 hour at 22° C., read-out: IC 50 (μM), HCV-polymerase; for pIC50: Tables IXa-IXc, unit inferred, read-out: HCV (IC50). Summed up:
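Baculovirus-expressed recombinant NS5B (20 nM) polymerised on poly(A) template (10 μg/ml) with oligo(U)12 primer, 10 μM UTP plus [3H]UTP, pH 7.5 Tris buffer with 5 mM MgCl2, 1 h at 22 °C. Acid-insoluble radioactivity counted on filters; IC50 fitted from residual activity with slope term.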

Assay [2] addresses T2, polymerase of hepatitis B virus (HBV pol) (Hepatitis B virus genotype D subtype ayw, UniProt P03156).
T2 construct: obtained in the form of viral particles from the sera of HBV positive patients; from tissue; host or cells: sera of HBV positive patients (viral particles)
Nature of the assay: Inhibition of hepatitis B virus polymerase (32P-dNTP incorporation, viral particles from patient sera). Type of assay: biochemical. The note with it: Tables IXa-IXc; unit inferred; NA=not active as an inhibitor. As for the experimental part:
Analogous assays employed the polymerase of hepatitis B virus (HBV pol), obtained in the form of viral particles from the sera of HBV positive patients. These particles contain a polymerase bound to an incomplete double stranded DNA template. In the assay the incorporation of ^32P-dNTP is measured as radioactivity incorporated in acid insoluble precipitate.
The standard reaction (100 μl) was carried out in a buffer containing 50 mM tris/HCl pH 7.5, 30 mM MgCl 2 , 1 mM DTT, 100 mM KCl, 0.02% Triton X-100, 1 μCi[^32P] dCTP (300 Ci/mmol, NEN), 1 μM dATP, dTTP, dGTP. After 1 hour incubation at 37° C. the reaction was stopped by adding 100 μl of 20% TCA and applying samples to DE81 filters. The filters were processed and IC50 values calculated as described above.

Assay [3] deals with T3, reverse transcriptase of HIV (HIV-1 RT) (Human immunodeficiency virus type 1 group M subtype B, UniProt P03366).
T3 construct: the reverse transcriptase of HIV (HIV -1RT) from Boehringer Mannhium; purchased Boehringer Mannheim (printed 'Boehringer Mannhium')
As to the kind of experiment: Inhibition of HIV-1 reverse transcriptase ([3H]dTTP incorporation). Type of assay: biochemical, Human Immunodeficiency Virus-1. The note with it: Tables IXa-IXc; unit inferred; NA=not active as an inhibitor. Here is the method:
Test for Inhibition of Human Immunodeficiency Virus-1 Reverse Transcriptase
Analogous assays employed the reverse transcriptase of HIV (HIV -1RT) from Boehringer Mannhium.
Incorporation of radioactive dTTP was measured as follows. The standard reaction (100 μl) was carried out in a buffer containing 50 mM tris/HCl pH 8.2, 2.5 mM MgCl 2, 1 mM DTT, 80 mM KCl, 5 mM EGTA, 0.05% Triton X-100, 1 μCi[3H] dTTP (40 Ci/mmol, NEN), 10 μM […] and 10 μg/ml poly(A)/dT (from Pharmacia).

T2 sequence (P03156 whole entry): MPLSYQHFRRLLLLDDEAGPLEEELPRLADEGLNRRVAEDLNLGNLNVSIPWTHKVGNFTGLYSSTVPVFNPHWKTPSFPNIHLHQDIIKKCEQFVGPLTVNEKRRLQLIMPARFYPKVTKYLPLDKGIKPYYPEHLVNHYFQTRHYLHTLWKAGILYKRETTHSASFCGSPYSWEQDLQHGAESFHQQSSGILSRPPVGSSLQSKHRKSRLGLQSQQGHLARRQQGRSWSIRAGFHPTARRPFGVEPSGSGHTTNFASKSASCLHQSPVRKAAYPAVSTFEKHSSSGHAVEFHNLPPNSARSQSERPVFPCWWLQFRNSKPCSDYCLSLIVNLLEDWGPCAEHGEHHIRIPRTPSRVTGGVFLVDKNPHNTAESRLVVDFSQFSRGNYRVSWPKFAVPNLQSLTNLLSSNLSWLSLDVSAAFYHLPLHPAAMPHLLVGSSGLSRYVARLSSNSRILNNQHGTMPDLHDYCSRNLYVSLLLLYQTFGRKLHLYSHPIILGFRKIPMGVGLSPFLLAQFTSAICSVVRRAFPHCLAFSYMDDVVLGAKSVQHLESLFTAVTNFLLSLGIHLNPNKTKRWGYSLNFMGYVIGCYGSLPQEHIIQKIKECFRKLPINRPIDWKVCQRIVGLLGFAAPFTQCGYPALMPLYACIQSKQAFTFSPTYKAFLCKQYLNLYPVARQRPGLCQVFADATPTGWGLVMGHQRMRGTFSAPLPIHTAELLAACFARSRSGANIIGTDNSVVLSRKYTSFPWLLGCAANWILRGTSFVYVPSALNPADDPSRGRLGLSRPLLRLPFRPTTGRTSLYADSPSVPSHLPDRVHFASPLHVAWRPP
T1 sequence (P26663 2420-3010): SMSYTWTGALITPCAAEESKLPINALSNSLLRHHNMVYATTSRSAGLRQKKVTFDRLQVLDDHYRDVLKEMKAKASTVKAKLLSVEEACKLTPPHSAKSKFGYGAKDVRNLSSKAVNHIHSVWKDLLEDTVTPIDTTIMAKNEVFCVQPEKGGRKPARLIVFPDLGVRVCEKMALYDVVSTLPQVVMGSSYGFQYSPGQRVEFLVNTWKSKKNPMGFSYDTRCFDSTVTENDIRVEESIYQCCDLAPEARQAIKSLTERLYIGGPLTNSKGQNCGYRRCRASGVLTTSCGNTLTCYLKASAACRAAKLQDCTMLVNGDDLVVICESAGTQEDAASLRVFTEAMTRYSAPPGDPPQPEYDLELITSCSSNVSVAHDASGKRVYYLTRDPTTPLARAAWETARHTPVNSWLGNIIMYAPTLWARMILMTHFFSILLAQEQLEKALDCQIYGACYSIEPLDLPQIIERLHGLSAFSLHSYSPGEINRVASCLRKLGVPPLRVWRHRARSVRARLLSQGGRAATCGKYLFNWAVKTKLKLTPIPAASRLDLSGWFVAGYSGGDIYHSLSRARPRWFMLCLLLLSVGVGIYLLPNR

With `O=C(O)C(O)=CC(=O)c1ccc(Cc2ccc(F)cc2)s1` [Example 206], in assay [1], the IC50 came out at 65 µM and the pIC50 is 4.19. In assay [2], this compound gave a pIC50 of 5.70.
For `Cc1sc(-c2ccccc2)cc1C(=O)C=C(O)C(=O)O` [Example 225], in assay [1], the IC50 worked out at 167 µM. The pIC50 in assay [1] is 3.78; in assay [2] it was 5.40; in assay [3], 4.07.
As to `O=C(O)C(O)=CC(=O)c1ccc(-c2ccccc2)s1` [Example 196], the IC50 in assay [1] was determined as 15 µM. For the same compound, the negative logarithm of the IC50 (pIC50) in assay [1] was 4.82; in assay [2], 5.05; in assay [3] it was 4.30.
As to `O=C(O)C(O)=CC(=O)c1ccc(Cc2cccc(F)c2)s1` [Example 205], the IC50 in assay [1] was 74 µM. Further, the results for the pIC50 in assay [1] and in assay [2] were 4.13 and 5.48, respectively.
For `O=C(O)C(O)=CC(=O)c1ccc(Cc2ccccc2)s1` [Example 202], the IC50 in assay [1] was found to be 68 µM. In addition, the results for the pIC50 in assay [1], in assay [2] and in assay [3] were 4.15, 5.05 and below 4.00, respectively.
With `N#Cc1cccc(Cl)c1COc1cccc(C(=O)C=C(O)C(=O)O)c1` [Example 107], in assay [1], the IC50 was determined as 0.14 µM and the negative-log IC50 (pIC50) is 6.85. In assay [3], this compound showed a pIC50 of 4.24.
As to `N#CCCCOc1ccccc1C(=O)C=C(O)C(=O)O` [Example 20], in assay [1], the IC50 is 0.38 µM and the negative logarithm of the IC50 (pIC50) was 6.42. The pIC50 in assay [3] is 4.57.

For the origin of these results see patent US7022736B2, “Enzyme inhibitors” (Istituto Di Ricerche Di Biologia Molecolare P Angeletti SpA, priority 1998, dated 2006).
